# Patent US10912815B2, “Inhibitors of mitochondrial fission and methods of use thereof” (The Board of Trustees of the Leland Stanford Junior …, priority 2011, dated 2021)
# Entries after “also recorded” stand apart in the source; their conditions may differ. No end group written: not given here.
# Tests used:
# dynamin-1 = target: T1, dynamin-1 (Homo sapiens, UniProt Q05193); experiment: In vitro GTPase assay, recombinant dynamin-1; format: biochemical; settings: recombinant dynamin-1 25 ng, FIG. 2B
# T1 sequence (Q05193 1-864): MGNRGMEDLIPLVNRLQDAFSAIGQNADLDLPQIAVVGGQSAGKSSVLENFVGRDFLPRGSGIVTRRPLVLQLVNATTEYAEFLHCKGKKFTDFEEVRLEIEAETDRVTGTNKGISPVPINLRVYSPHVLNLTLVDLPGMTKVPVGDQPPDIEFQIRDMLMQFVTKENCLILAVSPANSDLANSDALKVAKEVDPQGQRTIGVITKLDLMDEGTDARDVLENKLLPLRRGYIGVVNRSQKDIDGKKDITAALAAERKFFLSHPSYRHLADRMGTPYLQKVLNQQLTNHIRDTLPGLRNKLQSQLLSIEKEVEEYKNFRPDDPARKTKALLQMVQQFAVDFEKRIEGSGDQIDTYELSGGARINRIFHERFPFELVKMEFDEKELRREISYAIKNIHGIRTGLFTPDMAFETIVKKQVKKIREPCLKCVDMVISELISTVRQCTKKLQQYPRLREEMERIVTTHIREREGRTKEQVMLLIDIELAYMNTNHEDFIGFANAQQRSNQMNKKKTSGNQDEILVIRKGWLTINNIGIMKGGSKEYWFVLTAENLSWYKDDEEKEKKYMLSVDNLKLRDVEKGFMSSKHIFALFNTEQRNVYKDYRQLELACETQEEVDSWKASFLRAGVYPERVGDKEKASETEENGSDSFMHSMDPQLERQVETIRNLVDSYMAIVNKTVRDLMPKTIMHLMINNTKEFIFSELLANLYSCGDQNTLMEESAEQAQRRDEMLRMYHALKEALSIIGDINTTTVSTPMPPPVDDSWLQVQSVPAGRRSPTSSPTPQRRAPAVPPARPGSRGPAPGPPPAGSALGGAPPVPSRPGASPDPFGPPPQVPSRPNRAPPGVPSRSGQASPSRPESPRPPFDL
# Procedure: First, mitochondrial fission inhibitor constructs were tested to determine what, if any, effects each peptide had on enzyme (GTPase) activity. Recombinant protein Drp1, Mfn1, OPA1 or dynamin-1 (25 ng) was incubated with the indicated modulator peptides for 30 min. GTPase activity was assayed in vitro using a GTPase assay kit (Innova Biosciences, Littleton, USA, or Novus Biologicals, Littleton, Colo.) according to manufacturer's instructions.
# Drp1/Fis1 interaction = Drp1/Fis1 interaction (Homo sapiens, UniProt O00429); experiment: Direct binding between recombinant Drp1 and Fis1 (immunoprecipitation); settings: peptides 1 μM each, Drp1 50 ng, Fis1 50 ng, FIG. 2D
# Procedure: In another set of experiments, Drp1 was incubated with Fis1 and the complex was immunoprecipitated using anti-Drp1 antibody followed by immunoblotting with anti-Fis1 antibody. For direct binding between Drp1 and Fis1, recombinant Drp1 (50 ng) and Fis1 (50 ng) were incubated in PBS containing 1 mM DSP for 30 min in the presence or absence of Drp1/Fis1 peptides (1 μM each) or control peptide TAT. After termination of the reaction by 50 mM Tris-HCl, pH 7.5, reaction mixtures were subjected to immunoprecipitation with anti-Fis1 antibody in the presence of 1% Triton X-100. Immunoprecipitates were washed with PBS containing 1% Triton X-100 and analyzed by SDS-PAGE and subsequent immunoblotting with antibodies to Fis1 and Drp1.
# SH-SY5Y cells = experiment: Mitochondrial morphology/fragmentation in SH-SY5Y cells (TOM20 staining); format: cell-based, human; settings: for percentage of cells with fragmented mitochondria: P110 1 μM 30 min, FIG. 5
# Procedure: To determine effects of P110 on mitochondrial morphology in response to mitochondrial stresses, an immuno-staining approach was used. In one experiment, SH-SY5Y neuronal cells were treated with Drp1 peptides or Drp1 siRNA followed by treatment of MPP+. The cells were then stained with TOM20 and Hoechst stain.
# In another experiment, cultured SH-SY5Y cells were treated with P110 (1 μM) for 30 min followed by incubation with MPP+(2 mM, 4 hrs) or CCCP (5 uM, 30 min). The cells were then stained with anti-Tom 20 antibody (green) and Hoechst stain (scale bar 0.5 μm). Mitochondrial morphology was analyzed using 63× oil lens. The data were analyzed and are presented as a histogram in which the percentage of cells with fragmented mitochondria relative to the total number of cells is presented as the mean±S.E. of 3 independent experiments. At least 200 cells per group were counted.
# [1] = test system: mitochondrial electron transport chain (complexes I-V); experiment: Mitochondrial complex I-V assembly in SH-SY5Y cells (western blot); format: cell-based, human; settings: SH-SY5Y treated with MPP+, FIG. 8
# Procedure: The oxidative phosphorylation system in the mitochondria is responsible for generating ATP and consists of five major membrane protein complexes, the mitochondrial complexes I-V. MPP+ is a specific mitochondrial complex I inhibitor. P110 was tested for potential effects on MPP+-induced defects in mitochondrial complexes. […] The lower panel is a histogram in which the quantitative data generated from the western blot are expressed as mean±S.E. of 3 independent experiments.
# Sequence of Drp1/Fis1 interaction (O00429 1-710 isoform O00429-3): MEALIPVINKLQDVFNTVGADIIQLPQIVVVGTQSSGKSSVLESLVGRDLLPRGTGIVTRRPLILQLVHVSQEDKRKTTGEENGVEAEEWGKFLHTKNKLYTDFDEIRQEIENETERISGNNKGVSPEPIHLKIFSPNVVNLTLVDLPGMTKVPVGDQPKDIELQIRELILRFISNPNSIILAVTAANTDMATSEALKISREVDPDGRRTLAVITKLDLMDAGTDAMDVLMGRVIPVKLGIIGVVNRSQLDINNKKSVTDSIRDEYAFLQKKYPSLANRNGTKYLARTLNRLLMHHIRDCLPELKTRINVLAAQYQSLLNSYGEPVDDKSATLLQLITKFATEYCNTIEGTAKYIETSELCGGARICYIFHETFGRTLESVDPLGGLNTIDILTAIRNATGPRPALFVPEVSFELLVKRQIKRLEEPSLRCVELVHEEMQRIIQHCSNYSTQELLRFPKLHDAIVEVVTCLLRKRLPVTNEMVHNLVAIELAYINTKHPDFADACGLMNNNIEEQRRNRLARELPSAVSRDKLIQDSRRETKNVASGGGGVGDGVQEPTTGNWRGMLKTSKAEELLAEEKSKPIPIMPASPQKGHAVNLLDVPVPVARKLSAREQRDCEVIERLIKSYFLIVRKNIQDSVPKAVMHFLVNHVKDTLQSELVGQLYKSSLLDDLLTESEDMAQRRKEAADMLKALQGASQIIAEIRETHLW
sequence,measurement,setting,value
"RRRQRRKKRGYGGDLLPRGS (RRRQRRKKRGYGGDLLPRGS-NH2) [P110, TAT47-57 carrier, GG linker, Drp1 region 110 (GTPase domain) peptide DLLPRGS; C-terminus C(O)-NH2]",effect on GTPase activity of dynamin-1,dynamin-1,no effects
same,"Drp1-Fis1 interaction, recombinant proteins",Drp1/Fis1 interaction,blocked
same,percentage of cells with fragmented mitochondria,"SH-SY5Y cells; then CCCP 5 uM 30 min, 63% without P110",23%
same,percentage of cells with fragmented mitochondria,"SH-SY5Y cells; then MPP+ 2 mM 4 hrs, 50% without P110",14%
same,reduction of mitochondrial fragmentation in cells exposed to MPP+,"SH-SY5Y cells; SH-SY5Y, MPP+, p<0.01, n=3, FIG. 4A, 4B",70%
same,mitochondrial morphology/network in control (non-stressed) cells,"SH-SY5Y cells; SH-SY5Y, no stressor",minimal effects; also recorded: no effect; also recorded: did not observe dramatic difference
same,MPP+-induced reduction of NDUFB8 (complex I) and MTCOI (complex IV),[1],abolished the reduction of these two proteins
same,assembly of the mitochondrial electron transport chain (ETC),[1],improved the assembly
